Experiments:
[1] = tested on: BT474 [human breast carcinoma, overexpressing HER2 (ErbB2)]; test: In vitro tumor cell proliferation assay (Cell Titer-Glo luminescent cell viability), BT474 cells; assay type: cell-based; conditions: BT-474, 72 h, 72 hours of drug exposure, Cell Titer-Glo readout, read-out: IC50, anti-proliferative activity in BT474 cells
[2] = tested on: A431 cells [human epidermoid carcinoma, overexpressing HER1 (EGFR, ErbB1)]; test: In vitro tumor cell proliferation assay (Cell Titer-Glo luminescent cell viability), A431 cells; assay type: cell-based; conditions: A-431, 72 h, 72 hours of drug exposure, Cell Titer-Glo readout, read-out: IC50, anti-proliferative activity in A431 cells

IC50 [1]	IC50 [2]	Compound
≤ 0.5 µM	≤ 50 µM	CS(=O)(=O)CCNC(=O)Cc1ccc2c(c1)sc1ncnc(Nc3ccc(OCc4ccccn4)c(Cl)c3)c12 [Example 102, 2-(4-{[3-chloro-4-(pyridin-2-ylmethoxy)phenyl]amino}[1]benzothieno[2,3-d]pyrimidin-7-yl)-N-[2-(methylsulfonyl)ethyl] acetamide]
≤ 5 µM	≤ 50 µM	COCCN(C)C(=O)Cc1ccc2c(c1)sc1ncnc(Nc3ccc(OCc4ccccn4)c(Cl)c3)c12 [Example 103, 2-(4-{[3-chloro-4-(pyridin-2-ylmethoxy)phenyl]amino}[1]benzothieno[2,3-d]pyrimidin-7-yl)-N-(2-methoxyethyl)-N-methylacetamide]
≤ 5 µM	≤ 50 µM	O=C(Cc1ccc2c(c1)sc1ncnc(Nc3ccc(OCc4ccccn4)c(Cl)c3)c12)N(CCO)CCO [Example 105, 2(4-{[3-chloro-4-(pyridin-2-ylmethoxy)phenyl]amino}[1]benzothieno[2,3-d]pyrimidin-7-yl)-N,N-bis-(2-hydroxyethyl) acetamide]
≤ 5 µM	≤ 50 µM	O=C(Cc1ccc2c(c1)sc1ncnc(Nc3ccc(OCc4ccccn4)c(Cl)c3)c12)NCCO [Example 106, 2(4-{[3-chloro-4-(pyridin-2-ylmethoxy)phenyl]amino}[1]benzothieno[2,3-d]pyrimidin-7-yl)-N-(2-hydroxyethyl)acetamide]
≤ 5 µM	≤ 5 µM	COC[C@@H]1CCCN1C(=O)Cc1ccc2c(c1)sc1ncnc(Nc3ccc(OCc4ccccn4)c(Cl)c3)c12 [Example 107, N-[3-chloro-4-(pyridin-2-ylmethoxy)phenyl]-7-{2-[2-(methoxymethyl)pyrrolidin-1-yl]-2-oxoethyl}[1]benzothieno[2,3-d] pyrimidin-4-amine]
≤ 5 µM	≤ 5 µM	O=C(Cc1ccc2c(c1)sc1ncnc(Nc3ccc(OCc4ccccn4)c(Cl)c3)c12)N1CCC[C@@H]1CO [Example 108, {1-[(4-{[3-chloro-4-(pyridin-2-ylmethoxy)phenyl]amino}[1]benzothieno[2,3-d]pyrimidin-7-yl)acetyl]pyrrolidin-2-yl}methanol]
≤ 0.5 µM	≤ 5 µM	NS(=O)(=O)OCCc1ccc2c(c1)sc1ncnc(Nc3ccc(OCc4ccccn4)c(Cl)c3)c12 [Example 109, 2-(4-{[3-chloro-4-(pyridin-2-ylmethoxy)phenyl]amino}[1]benzothieno[2,3-d]pyrimidin-7-yl)ethyl sulfamate]
≤ 5 µM	≤ 50 µM	Oc1ccc2c(c1)sc1ncnc(Nc3ccc(OCc4ccccn4)c(Cl)c3)c12 [Example 110, 4-{[3-chloro-4-(pyridin-2-ylmethoxy)phenyl]amino}[1] benzothieno[2,3-d]pyrimidin-7-ol]
≤ 0.5 µM	≤ 50 µM	OC[C@@H](O)COc1ccc2c(c1)sc1ncnc(Nc3ccc(OCc4ccccn4)c(Cl)c3)c12 [Example 111, (2R)-3-[(4-{[3-chloro-4-(pyridin-2-ylmethoxy)phenyl]amino}[1]benzothieno[2,3-d]pyrimidin-7-yl)oxy]propane-1,2-diol]
≤ 0.5 µM	≤ 5 µM	OC[C@H](O)COc1ccc2c(c1)sc1ncnc(Nc3ccc(OCc4ccccn4)c(Cl)c3)c12 [Example 112, (2S)-3-[(4-{[3-chloro-4-(pyridin-2-ylmethoxy)phenyl]amino}[1]benzothieno[2,3-d]pyrimidin-7-yl)oxy]propane-1,2-diol]
≤ 5 µM	≤ 50 µM	Fc1cccc(Cn2ncc3cc(Nc4ncnc5sc6cc(Br)ccc6c45)ccc32)c1 [Example 113, 7-bromo-N-[1-(3-fluorobenzyl)-1H-indazol-5-yl][1]benzothieno [2,3-d]pyrimidin-4-amine]

Compound	IC50 [1]	IC50 [2]
COCCN1CCN(C(=O)Cc2ccc3c(c2)sc2ncnc(Nc4ccc(OCc5ccccn5)c(Cl)c4)c23)CC1 [Example 104, N-[3-chloro-4-(pyridin-2-ylmethoxy)phenyl]-7-{2-[4-(2-methoxyethyl)piperazin-1-yl]-2-oxoethyl}[1]benzothieno [2,3-d]pyrimidin-4-amine]	≤ 0.5 µM	≤ 50 µM

From patent publication US7750017B2, “Heterocycles” (Bayer Schering Pharma Aktiengesellschaft, priority 2004, dated 2010)
